Results from patent US20260049077A1, “Neurotrophic Receptor Tyrosine Kinase (NTRK) Inhibitors and Methods Using Same” (Baylor College of Medicine, priority 2022, published 2026).
“Also recorded” adds a separate entry of the source. Where two headings read alike, the source gives them in different places.

Experiments:
[1] = tested on: 192 kinases; test: Promega K192 cell-based NanoBRET kinase occupancy assay (panel); conditions: 1 μM
Description: (§1) Similarly, the selectivity of CDD-3031 for NTRK kinases was evaluated in a kinase occupancy assay (Promega K192 cell-based NanoBRET assay) using 192 kinases (Table 4).

[2] = biological target: AURKB (Homo sapiens (Human), UniProt Q96GD4); test: Promega K192 cell-based NanoBRET kinase occupancy assay
Description: as §1

[3] = biological target: AURKC (Homo sapiens (Human), UniProt Q9UQB9); test: as above
Description: as §1

[4] = biological target: ITK (Homo sapiens (Human), UniProt Q08881); test: as above
Description: as §1

[5] = biological target: JAK2 (V617F) (Homo sapiens (Human), UniProt O60674, V617F); test: as above
Description: as §1

[6] = biological target: MAP3K12 (Homo sapiens (Human), UniProt Q12852); test: as above
Description: as §1

[7] = biological target: NEK5 (Homo sapiens (Human), UniProt Q6P3R8); test: as above
Description: as §1

[8] = biological target: NTRK1 (Homo sapiens (Human), UniProt P04629); test: as above
Description: as §1

[9] = biological target: PKMYT1 (Homo sapiens (Human), UniProt Q99640); test: as above
Description: as §1

[10] = biological target: STK11 (Homo sapiens (Human), UniProt Q15831); test: as above
Description: as §1

[11] = biological target: TIE1 (Homo sapiens (Human), UniProt P35590); test: as above
Description: as §1

[12] = biological target: WEE1 (Homo sapiens (Human), UniProt P30291); test: as above
Description: as §1

[13] = Brain uptake in mice 24 hours post-administration; type: in vivo, mouse
[14] = Endometriosis mouse model, liver and kidney toxicity (organ weight, ALT, AST); type: in vivo; parameters: ALT (Mean ± SD) / AST (Mean ± SD): unit not given here
Description: In one aspect, the present disclosure provides exemplary data relating to the administration of NTRK2 inhibitors in a mouse model of endometriosis (FIG. 14). In certain embodiments, the recipient mouse is administered the NTRK2 inhibitor and/or controls on day 14 after intraperitoneal injection of endometrium of the donor mouse. In certain embodiments, the recipient mouse is sacrificed and quantitatively assessed on day 28.

[15] = Metabolic stability in mouse liver microsomes (MLM)
[16] = i.p. dose of 10 mg/kg/day for 14 days

Chain of ITK (Q08881 whole entry): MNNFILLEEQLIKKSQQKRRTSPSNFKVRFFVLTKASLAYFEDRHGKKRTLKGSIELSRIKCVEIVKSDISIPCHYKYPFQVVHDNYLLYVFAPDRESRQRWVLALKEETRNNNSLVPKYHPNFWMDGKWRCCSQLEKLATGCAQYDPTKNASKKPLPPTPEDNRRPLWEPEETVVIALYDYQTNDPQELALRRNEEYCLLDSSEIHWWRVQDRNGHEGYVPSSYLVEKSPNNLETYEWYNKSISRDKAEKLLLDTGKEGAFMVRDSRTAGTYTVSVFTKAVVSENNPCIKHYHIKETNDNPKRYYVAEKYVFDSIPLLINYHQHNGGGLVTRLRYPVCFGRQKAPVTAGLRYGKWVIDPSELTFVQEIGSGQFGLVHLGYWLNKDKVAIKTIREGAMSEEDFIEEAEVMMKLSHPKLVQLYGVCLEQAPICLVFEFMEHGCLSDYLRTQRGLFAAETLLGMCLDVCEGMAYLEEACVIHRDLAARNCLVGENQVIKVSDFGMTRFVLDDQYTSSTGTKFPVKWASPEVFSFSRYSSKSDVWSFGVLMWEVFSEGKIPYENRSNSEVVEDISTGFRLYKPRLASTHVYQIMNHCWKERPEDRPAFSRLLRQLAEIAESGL
Chain of PKMYT1 (Q99640 whole entry): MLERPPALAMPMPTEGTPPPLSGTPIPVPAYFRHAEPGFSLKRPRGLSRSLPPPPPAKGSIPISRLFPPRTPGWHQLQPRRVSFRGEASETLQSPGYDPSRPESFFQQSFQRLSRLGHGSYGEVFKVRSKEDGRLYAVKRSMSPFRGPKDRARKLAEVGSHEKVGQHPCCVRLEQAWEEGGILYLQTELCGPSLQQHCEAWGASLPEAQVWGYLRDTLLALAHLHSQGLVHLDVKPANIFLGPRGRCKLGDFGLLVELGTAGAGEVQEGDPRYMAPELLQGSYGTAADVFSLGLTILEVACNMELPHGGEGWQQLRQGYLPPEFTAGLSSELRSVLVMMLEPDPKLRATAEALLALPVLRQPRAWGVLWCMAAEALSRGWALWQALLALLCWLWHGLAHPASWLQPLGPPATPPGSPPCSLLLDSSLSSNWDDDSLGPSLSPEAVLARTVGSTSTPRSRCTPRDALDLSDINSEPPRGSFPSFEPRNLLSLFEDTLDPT
Chain of WEE1 (P30291 whole entry): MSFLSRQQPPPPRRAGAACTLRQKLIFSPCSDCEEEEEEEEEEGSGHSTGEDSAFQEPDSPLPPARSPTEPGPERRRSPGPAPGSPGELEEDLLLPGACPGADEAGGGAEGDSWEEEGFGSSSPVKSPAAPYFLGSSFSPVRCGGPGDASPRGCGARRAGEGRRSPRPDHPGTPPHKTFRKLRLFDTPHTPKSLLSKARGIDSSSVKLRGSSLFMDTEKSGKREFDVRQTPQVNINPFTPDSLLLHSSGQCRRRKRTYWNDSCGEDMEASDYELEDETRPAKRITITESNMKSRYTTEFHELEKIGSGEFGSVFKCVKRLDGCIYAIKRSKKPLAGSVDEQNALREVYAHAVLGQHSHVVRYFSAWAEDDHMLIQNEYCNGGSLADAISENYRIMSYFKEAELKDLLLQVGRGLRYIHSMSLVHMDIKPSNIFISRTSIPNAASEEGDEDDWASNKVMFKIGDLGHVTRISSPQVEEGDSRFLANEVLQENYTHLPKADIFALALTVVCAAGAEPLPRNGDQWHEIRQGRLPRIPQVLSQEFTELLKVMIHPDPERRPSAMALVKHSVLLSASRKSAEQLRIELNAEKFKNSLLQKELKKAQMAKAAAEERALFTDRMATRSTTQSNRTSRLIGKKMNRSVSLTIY
Chain of STK11 (Q15831 whole entry): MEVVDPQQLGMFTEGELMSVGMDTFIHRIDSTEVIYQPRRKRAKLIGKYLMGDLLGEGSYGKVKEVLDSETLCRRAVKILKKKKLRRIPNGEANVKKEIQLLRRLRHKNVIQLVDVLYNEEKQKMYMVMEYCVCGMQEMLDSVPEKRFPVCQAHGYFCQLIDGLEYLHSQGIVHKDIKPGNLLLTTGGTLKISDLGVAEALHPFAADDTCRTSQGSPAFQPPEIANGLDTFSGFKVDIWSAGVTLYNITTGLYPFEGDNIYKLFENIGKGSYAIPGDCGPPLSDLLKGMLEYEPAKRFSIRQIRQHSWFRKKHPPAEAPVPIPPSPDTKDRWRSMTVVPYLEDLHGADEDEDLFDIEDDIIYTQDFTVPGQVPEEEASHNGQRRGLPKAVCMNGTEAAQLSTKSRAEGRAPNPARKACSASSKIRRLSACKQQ
Chain of MAP3K12 (Q12852 whole entry): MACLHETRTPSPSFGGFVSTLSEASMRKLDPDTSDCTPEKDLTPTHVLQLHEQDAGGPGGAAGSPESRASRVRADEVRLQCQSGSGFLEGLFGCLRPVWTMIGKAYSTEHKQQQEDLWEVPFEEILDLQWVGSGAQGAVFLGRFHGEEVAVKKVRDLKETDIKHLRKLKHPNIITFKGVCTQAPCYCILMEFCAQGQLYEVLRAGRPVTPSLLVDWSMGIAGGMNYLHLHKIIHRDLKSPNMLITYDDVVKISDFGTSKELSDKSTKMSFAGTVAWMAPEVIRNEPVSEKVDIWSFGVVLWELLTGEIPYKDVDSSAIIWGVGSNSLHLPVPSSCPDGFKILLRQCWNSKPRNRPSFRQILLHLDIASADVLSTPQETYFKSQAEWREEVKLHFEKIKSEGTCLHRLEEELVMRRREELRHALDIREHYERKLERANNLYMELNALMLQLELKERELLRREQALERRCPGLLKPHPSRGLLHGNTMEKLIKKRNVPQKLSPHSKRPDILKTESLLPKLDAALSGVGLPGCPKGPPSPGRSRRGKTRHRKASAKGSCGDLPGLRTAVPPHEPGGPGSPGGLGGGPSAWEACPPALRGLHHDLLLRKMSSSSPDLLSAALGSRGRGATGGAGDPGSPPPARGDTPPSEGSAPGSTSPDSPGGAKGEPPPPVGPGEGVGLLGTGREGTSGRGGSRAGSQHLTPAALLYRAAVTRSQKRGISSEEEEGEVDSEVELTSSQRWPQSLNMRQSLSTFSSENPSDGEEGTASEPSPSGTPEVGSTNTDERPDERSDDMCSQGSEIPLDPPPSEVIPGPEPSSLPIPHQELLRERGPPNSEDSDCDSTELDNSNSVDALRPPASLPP
Chain of JAK2 (V617F) (O60674 whole entry V617F): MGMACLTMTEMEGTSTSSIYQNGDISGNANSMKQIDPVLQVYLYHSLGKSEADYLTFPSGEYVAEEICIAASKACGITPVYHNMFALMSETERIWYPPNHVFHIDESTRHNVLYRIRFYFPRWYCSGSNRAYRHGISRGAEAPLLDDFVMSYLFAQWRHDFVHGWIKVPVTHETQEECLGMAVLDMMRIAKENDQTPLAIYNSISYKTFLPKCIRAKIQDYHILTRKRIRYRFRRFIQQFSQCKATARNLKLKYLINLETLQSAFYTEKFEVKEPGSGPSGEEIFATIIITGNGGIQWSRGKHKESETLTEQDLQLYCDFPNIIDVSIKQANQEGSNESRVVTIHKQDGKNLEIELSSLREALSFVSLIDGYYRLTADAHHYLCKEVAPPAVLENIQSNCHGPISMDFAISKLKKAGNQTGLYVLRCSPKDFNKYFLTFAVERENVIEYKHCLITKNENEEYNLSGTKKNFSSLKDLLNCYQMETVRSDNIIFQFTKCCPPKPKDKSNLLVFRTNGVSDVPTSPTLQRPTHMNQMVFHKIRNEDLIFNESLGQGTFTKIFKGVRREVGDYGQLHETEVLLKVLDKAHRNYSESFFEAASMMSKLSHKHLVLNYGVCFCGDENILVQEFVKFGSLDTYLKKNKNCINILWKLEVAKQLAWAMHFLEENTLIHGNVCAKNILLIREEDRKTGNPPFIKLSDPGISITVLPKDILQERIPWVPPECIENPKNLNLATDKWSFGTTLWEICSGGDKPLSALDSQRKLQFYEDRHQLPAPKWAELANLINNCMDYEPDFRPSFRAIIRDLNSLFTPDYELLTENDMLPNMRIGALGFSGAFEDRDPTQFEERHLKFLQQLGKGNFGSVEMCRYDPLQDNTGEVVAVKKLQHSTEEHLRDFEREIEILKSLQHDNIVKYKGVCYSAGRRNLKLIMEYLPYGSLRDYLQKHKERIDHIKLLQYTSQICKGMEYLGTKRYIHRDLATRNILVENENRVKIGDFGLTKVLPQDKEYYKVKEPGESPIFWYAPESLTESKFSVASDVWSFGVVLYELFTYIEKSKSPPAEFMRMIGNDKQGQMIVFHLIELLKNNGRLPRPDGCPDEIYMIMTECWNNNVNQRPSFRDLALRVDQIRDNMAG
Chain of AURKB (Q96GD4 whole entry): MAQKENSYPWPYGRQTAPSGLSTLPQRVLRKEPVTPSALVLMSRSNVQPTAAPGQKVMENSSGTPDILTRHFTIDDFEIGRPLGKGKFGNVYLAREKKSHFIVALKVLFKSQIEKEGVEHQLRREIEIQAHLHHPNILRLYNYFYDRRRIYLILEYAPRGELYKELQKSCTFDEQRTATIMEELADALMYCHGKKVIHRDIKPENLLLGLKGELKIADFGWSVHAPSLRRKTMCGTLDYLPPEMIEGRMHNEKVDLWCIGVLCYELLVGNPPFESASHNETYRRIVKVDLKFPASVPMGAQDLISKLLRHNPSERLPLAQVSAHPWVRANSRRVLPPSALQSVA
Chain of AURKC (Q9UQB9 whole entry): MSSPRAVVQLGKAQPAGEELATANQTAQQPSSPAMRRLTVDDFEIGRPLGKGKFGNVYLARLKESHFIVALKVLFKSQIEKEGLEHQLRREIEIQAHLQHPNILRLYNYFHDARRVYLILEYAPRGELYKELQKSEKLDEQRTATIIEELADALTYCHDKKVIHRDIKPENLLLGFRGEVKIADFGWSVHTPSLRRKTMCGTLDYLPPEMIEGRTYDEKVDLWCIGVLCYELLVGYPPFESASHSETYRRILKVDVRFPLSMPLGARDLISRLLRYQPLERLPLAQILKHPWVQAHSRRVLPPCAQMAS

CN(Cc1ccn2ncc(C(N)=O)c2c1)C(=O)Nc1ccc(OC(F)(F)F)cc1 [CDD-3031, 5-((1-methyl-3-(4-(trifluoromethoxy)phenyl)ureido)methyl)pyrazolo[1,5-a]pyridine-3-carboxamide]
selectivity in 192-kinase occupancy panel [1]: greater selectivity for NTRK2 and NTRK1 | receptor occupancy at 1 µM ([2]; average, read-out: AURKB kinase occupancy, Average (%)): 7.37% | receptor occupancy at 1 µM ([2]; replicate 1, read-out: AURKB kinase occupancy, Replicate 1 (%)): 3.71% | receptor occupancy at 1 µM ([2]; replicate 2, read-out: AURKB kinase occupancy, Replicate 2 (%)): 11% | receptor occupancy at 1 µM ([3]; average, read-out: AURKC kinase occupancy, Average (%)): 4.09% | receptor occupancy at 1 µM ([3]; replicate 1, read-out: AURKC kinase occupancy, Replicate 1 (%)): -7.48% | receptor occupancy at 1 µM ([3]; replicate 2, read-out: AURKC kinase occupancy, Replicate 2 (%)): 15.7% | receptor occupancy at 1 µM ([4]; average, read-out: ITK kinase occupancy, Average (%)): 5.61% | receptor occupancy at 1 µM ([4]; replicate 1, read-out: ITK kinase occupancy, Replicate 1 (%)): 14.2% | receptor occupancy at 1 µM ([4]; replicate 2, read-out: ITK kinase occupancy, Replicate 2 (%)): -2.94% | receptor occupancy at 1 µM ([5]; average, read-out: JAK2 (V617F) kinase occupancy, Average (%)): 9.92% | receptor occupancy at 1 µM ([5]; replicate 1, read-out: JAK2 (V617F) kinase occupancy, Replicate 1 (%)): 31.4% | receptor occupancy at 1 µM ([5]; replicate 2, read-out: JAK2 (V617F) kinase occupancy, Replicate 2 (%)): -11.6% | receptor occupancy at 1 µM ([6]; average, read-out: MAP3K12 kinase occupancy, Average (%)): 7.58% | receptor occupancy at 1 µM ([6]; replicate 1, read-out: MAP3K12 kinase occupancy, Replicate 1 (%)): 21.2% | receptor occupancy at 1 µM ([6]; replicate 2, read-out: MAP3K12 kinase occupancy, Replicate 2 (%)): -6.05% | receptor occupancy at 1 µM ([7]; average, read-out: NEK5 kinase occupancy, Average (%)): 5.02% | receptor occupancy at 1 µM ([7]; replicate 1, read-out: NEK5 kinase occupancy, Replicate 1 (%)): -0.81% | receptor occupancy at 1 µM ([7]; replicate 2, read-out: NEK5 kinase occupancy, Replicate 2 (%)): 10.8% | receptor occupancy at 1 µM ([8]; average, read-out: NTRK1 kinase occupancy, Average (%)): 73.2% | receptor occupancy at 1 µM ([8]; replicate 1, read-out: NTRK1 kinase occupancy, Replicate 1 (%)): 71.4% | receptor occupancy at 1 µM ([8]; replicate 2, read-out: NTRK1 kinase occupancy, Replicate 2 (%)): 75% | receptor occupancy at 1 µM ([9]; average, read-out: PKMYT1 kinase occupancy, Average (%)): 4.17% | receptor occupancy at 1 µM ([9]; replicate 1, read-out: PKMYT1 kinase occupancy, Replicate 1 (%)): 5.47% | receptor occupancy at 1 µM ([9]; replicate 2, read-out: PKMYT1 kinase occupancy, Replicate 2 (%)): 2.88% | receptor occupancy at 1 µM ([10]; average, read-out: STK11 kinase occupancy, Average (%)): 5.85% | receptor occupancy at 1 µM ([10]; replicate 1, read-out: STK11 kinase occupancy, Replicate 1 (%)): 6.96% | receptor occupancy at 1 µM ([10]; replicate 2, read-out: STK11 kinase occupancy, Replicate 2 (%)): 4.74% | receptor occupancy at 1 µM ([11]; average, read-out: TIE1 kinase occupancy, Average (%)): 14% | receptor occupancy at 1 µM ([11]; replicate 1, read-out: TIE1 kinase occupancy, Replicate 1 (%)): 8.54% | receptor occupancy at 1 µM ([11]; replicate 2, read-out: TIE1 kinase occupancy, Replicate 2 (%)): 19.5% | receptor occupancy at 1 µM ([12]; average, read-out: WEE1 kinase occupancy, Average (%)): 4.94% | receptor occupancy at 1 µM ([12]; replicate 1, read-out: WEE1 kinase occupancy, Replicate 1 (%)): 9.23% | receptor occupancy at 1 µM ([12]; replicate 2, read-out: WEE1 kinase occupancy, Replicate 2 (%)): 0.65% | brain uptake relative to controls ([13]; brain and plasma 24 hours post-administration): low brain penetration; also recorded: relatively low brain uptake compared to chlorpromazine (positive control), but a high uptake as compared to hydroxyzine (negative control) | concentration at 24 h ([13]; mouse, brain, 24 h, read-out: Brain Concentration at 24 h (ng/mg)): 350 ng/g | effect on liver and/or kidney weight and/or serum elevation of ALT and AST ([14]; 10 mg/kg, mice with endometriotic lesions): little to no effect | ALT (Mean ± SD) [14, 16]: 16.6 ± 2.6 | AST (Mean ± SD) [14, 16]: 46.9 ± 23.4 | impact on liver and kidney weights ([14]; mice treated for 14 days): no significant impact | half-life [15]: 13.1 h | microsomal CLint [15]: 1.8 µL/min/mg
